The values that follow are results of earlier work, collected in US10059696B2, “Process for preparing 1,3-dihydroimidazole-2-thione derivatives” (BIAL-PORTELA & CA, S.A., priority 2011, dated 2018).

The structures appear in SMILES notation.

For the data set the following is noted: able to cause central as well as peripheral effects.

For `NCc1c[nH]c(=S)n1[C@H]1CCc2c(F)cc(F)cc2C1` [nepicastat], the “blood brain barrier (BBB) crossing” value was “found to cross the blood brain barrier”.
